Reference: patent US8765730B2 (Hoffmann-La Roche Inc, priority 2010, dated 2014)

Molecular target: T1, human GPBAR1 receptor (Homo sapiens, UniProt Q8TDU6)
T1 construct: expressed in transfected cells
T1 sequence (Q8TDU6 1-330): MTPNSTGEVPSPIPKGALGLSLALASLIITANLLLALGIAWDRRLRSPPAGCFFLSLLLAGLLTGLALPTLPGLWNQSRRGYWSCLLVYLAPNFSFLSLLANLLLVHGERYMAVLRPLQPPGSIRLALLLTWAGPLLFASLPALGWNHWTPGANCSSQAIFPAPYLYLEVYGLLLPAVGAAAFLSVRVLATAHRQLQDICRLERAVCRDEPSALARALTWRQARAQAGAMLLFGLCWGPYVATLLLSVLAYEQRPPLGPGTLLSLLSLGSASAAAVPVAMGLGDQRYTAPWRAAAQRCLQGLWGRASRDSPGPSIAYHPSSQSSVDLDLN
Assay: functional cAMP assay in CHO-dhfr(minus) cells expressing human GPBAR1 receptors
Assay type: cell-based
Conditions: human EC50, functional cAMP assay, 30 min at 30° C.
Method in brief: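 Agonist cAMP read-out: stable GPBAR1 CHO-dhfr− clone, 30 min compound exposure at 30° C following 30 min IBMX (1 mM) preincubation in Krebs Ringer bicarbonate. Time-resolved energy-transfer detection gives EC50; parental CHO cells serve as counter-screen.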

Cc1ccccc1C(C/C(=N\O)c1cc(F)cc(F)c1)c1ccc(-c2cncnc2)cc1 (centres unmarked) [Example 54, (E)-1-(3,5-Difluoro-phenyl)-3-(4-pyrimidin-5-yl-phenyl)-3-o-tolyl-propan-1-one oxime]
EC50: 2580 nM

Cc1cc(/C(CC(c2ccccc2)c2ccccc2)=N/O)cc(F)n1 [Example 56, (E)-1-(2-Fluoro-6-methyl-pyridin-4-yl)-3,3-diphenyl-propan-1-one oxime]
EC50: 203 nM

O/N=C(\CC1c2ccccc2CCc2ccccc21)c1ccncc1 [Example 60, (E)-2-(10,11-Dihydro-5H-dibenzo[a,d]cyclohepten-5-yl)-1-pyridin-4-yl-ethanone oxime]
EC50: 810 nM

Cc1cccnc1C(C/C(=N\O)c1ccncc1)c1ccc(N(C)C)cc1 (centres unmarked) [Example 65, (E)-3-(4-Dimethylamino-phenyl)-3-(3-methyl-pyridin-2-yl)-1-pyridin-4-yl-propan-1-one oxime]
EC50: 39 nM

Cc1cc(/C(CC(c2ccccc2)c2ccccn2)=N/O)cc(C)n1 (centres unmarked) [Example 68, (E)-1-(2,6-Dimethyl-pyridin-4-yl)-3-phenyl-3-pyridin-2-yl-propan-1-one oxime]
EC50: 341 nM

O=C(O)c1cccc(C(C/C(=N\O)c2ccncc2)c2ccccc2)c1 (centres unmarked) [Example 69, 3-{3-[(E)-Hydroxyimino]-1-phenyl-3-pyridin-4-yl-propyl}-benzoic acid]
EC50: 1890 nM

O/N=C(\CC(c1ccccc1)c1ccccc1)c1cc(Cl)nc(Cl)c1 [Example 72, (E)-1-(2,6-Dichloro-pyridin-4-yl)-3,3-diphenyl-propan-1-one oxime]
EC50: 221 nM

O/N=C(/CC(c1ccccc1)c1ccccc1)c1cc(Cl)nc(Cl)c1 [Example 73, (Z)-1-(2,6-dichloro-pyridin-4-yl)-3,3-diphenyl-propan-1-one oxime]
EC50: 4430 nM

O=C(O)c1cccc(-c2ccc(C(C/C(=N\O)c3ccncc3)c3ccccc3)cc2)c1 (centres unmarked) [Example 76, 4′-{3-[(E)-Hydroxyimino]-1-phenyl-3-pyridin-4-yl-propyl}-biphenyl-3-carboxylic acid]
EC50: 490 nM

O=C(O)c1ccc(-c2ccc(C(C/C(=N\O)c3ccncc3)c3ccccc3)cc2)cc1 (centres unmarked) [Example 77, 4′-{3-[(E)-Hydroxyimino]-1-phenyl-3-pyridin-4-yl-propyl}-biphenyl-4-carboxylic acid]
EC50: 269 nM

Cc1cc(/C(C[C@H](c2ccc(-c3ccc(C(=O)NCC(=O)O)cc3)cc2)c2ccccc2C)=N/O)ccn1 [Example 96, ({4′-[(R)-3-[(E)-Hydroxyimino]-3-(2-methyl-pyridin-4-yl)-1-o-tolyl-propyl]-biphenyl-4-carbonyl}-amino)-acetic acid]
EC50: 3 nM

Cc1cc(/C(CC(c2cccc(-c3ccc(C(=O)O)c(F)c3)c2)c2ccccc2C)=N/O)ccn1 (centres unmarked) [Example 101, 3-Fluoro-3′-[3-[(E)-hydroxyimino]-3-(2-methyl-pyridin-4-yl)-1-o-tolyl-propyl]-biphenyl-4-carboxylic acid]
EC50: 1700 nM

Cc1cc(/C(CC(c2cccc(-c3ccc(C(=O)O)cc3)c2)c2ccccc2C)=N/O)ccn1 (centres unmarked) [Example 103, (E)-3′-[3-[Hydroxyimino]-3-(2-methyl-pyridin-4-yl)-1-o-tolyl-propyl]-biphenyl-4-carboxylic acid]
EC50: 589 nM

Cc1cc(/C(CC(c2cccc(CC(=O)O)c2)c2ccccc2C)=N/O)ccn1 (centres unmarked) [Example 105, {3-[3-[(E)-Hydroxyimino]-3-(2-methyl-pyridin-4-yl)-1-o-tolyl-propyl]-phenyl}-acetic acid]
EC50: 1020 nM

Cc1cc(/C(CC(c2cccc(-c3cccc(C(=O)NCC(=O)O)c3)c2)c2ccccc2C)=N/O)ccn1 (centres unmarked) [Example 108, ({3′-[3-[(E)-Hydroxyimino]-3-(2-methyl-pyridin-4-yl)-1-o-tolyl-propyl]-biphenyl-3-carbonyl}-amino)-acetic acid]
EC50: 76 nM

Cc1ccccc1C(C/C(=N\O)c1ccn(C)c(=O)c1)c1ccc(Br)cc1 (centres unmarked) [Example 110, 4-{3-(4-Bromo-phenyl)-1-[(E)-hydroxyimino]-3-o-tolyl-propyl}-1-methyl-1H-pyridin-2-one]
EC50: 116 nM

Cc1cc(/C(CC(c2ccc(Br)cc2)c2ncccc2C)=N/O)ccn1 (centres unmarked) [Example 116, (E)-3-(4-Bromo-phenyl)-3-(3-methyl-pyridin-2-yl)-1-(2-methyl-pyridin-4-yl)-propan-1-one oxime]
EC50: 5 nM

Cc1cc(/C(CC(c2ccc(-c3ccc(C(=O)O)cc3)cc2)c2ncccc2C)=N/O)ccn1 (centres unmarked) [Example 117, (E)-4′-[3-[Hydroxyimino]-3-(2-methyl-pyridin-4-yl)-1-(3-methyl-pyridin-2-yl)-propyl]-biphenyl-4-carboxylic acid]
EC50: 102 nM

Cc1ccccc1C(C/C(=N\O)c1cc(Cl)nc(Cl)c1)c1ccc(Br)cc1 (centres unmarked) [Example 120, (E)-3-(4-Bromo-phenyl)-1-(2,6-dichloro-pyridin-4-yl)-3-o-tolyl-propan-1-one oxime]
EC50: 184 nM

Cc1cc(/C(CC(c2cccc(Br)c2)c2ccccc2C)=N/O)cc(F)n1 (centres unmarked) [Example 122, (E)-3-(3-Bromo-phenyl)-1-(2-fluoro-6-methyl-pyridin-4-yl)-3-o-tolyl-propan-1-one oxime]
EC50: 201 nM

Cc1ccccc1C(C/C(=N\O)c1cncc(Br)c1)c1cccc(Br)c1 (centres unmarked) [Example 123, (E)-3-(3-Bromo-phenyl)-1-(5-bromo-pyridin-3-yl)-3-o-tolyl-propan-1-one oxime]
EC50: 4540 nM

Cc1cnc(F)c(/C(CC(c2ccc(Br)cc2)c2ccccc2C)=N/O)c1 (centres unmarked) [Example 128, (E)-3-(4-Bromo-phenyl)-1-(2-fluoro-5-methyl-pyridin-3-yl)-3-o-tolyl-propan-1-one oxime]
EC50: 650 nM

Cc1cc(/C(CC(c2ccc(-c3ccc(C(=O)O)c(F)c3)cc2)c2ccccc2C)=N/O)ccn1 (centres unmarked) [Example 131, 3-Fluoro-4′-[3-[(E)-hydroxyimino]-3-(2-methyl-pyridin-4-yl)-1-o-tolyl-propyl]-biphenyl-4-carboxylic acid]
EC50: 14 nM

Cc1cc(/C(CC(c2ccc(Br)cc2)c2ccccc2C(F)(F)F)=N/O)ccn1 (centres unmarked) [Example 132, (E)-3-(4-Bromo-phenyl)-1-(2-methyl-pyridin-4-yl)-3-(2-trifluoromethyl-phenyl)-propan-1-one oxime]
EC50: 46 nM

Cc1cc(/C(CC(c2ccc(-c3ccc(S(C)(=O)=O)cc3)cc2)c2ccccc2C(F)(F)F)=N/O)ccn1 (centres unmarked) [Example 133, (E)-3-(4′-Methanesulfonyl-biphenyl-4-yl)-1-(2-methyl-pyridin-4-yl)-3-(2-trifluoromethyl-phenyl)-propan-1-one oxime]
EC50: 114 nM

Cc1cc(/C(CC(c2ccc(-c3ccc(C(=O)O)cc3)cc2)c2ccccc2C(F)(F)F)=N/O)ccn1 (centres unmarked) [Example 134, 4′-[3-[(E)-Hydroxyimino]-3-(2-methyl-pyridin-4-yl)-1-(2-trifluoromethyl-phenyl)-propyl]-biphenyl-4-carboxylic acid]
EC50: 20 nM

Cc1cc(/C(CC(c2ccc(-c3ccc(C(=O)O)c(F)c3)cc2)c2ccccc2C(F)(F)F)=N/O)ccn1 (centres unmarked) [Example 135, 3-Fluoro-4′-[3-[(E)-hydroxyimino]-3-(2-methyl-pyridin-4-yl)-1-(2-trifluoromethyl-phenyl)-propyl]-biphenyl-4-carboxylic acid]
EC50: 29 nM

Cc1ccccc1C(C/C(=N\O)c1ccncc1)c1ccc(N2CCN(S(C)(=O)=O)CC2)cc1 (centres unmarked) [Example 136, (E)-3-[4-(4-Methanesulfonyl-piperazin-1-yl)-phenyl]-1-pyridin-4-yl-3-o-tolyl-propan-1-one oxime]
EC50: 24 nM

Cc1cc(/C(CC(c2ccc(N3CCN(S(C)(=O)=O)CC3)cc2)c2ccccc2C(F)(F)F)=N/O)ccn1 (centres unmarked) [Example 137, (E)-3-[4-(4-Methanesulfonyl-piperazin-1-yl)-phenyl]-1-(2-methyl-pyridin-4-yl)-3-(2-trifluoromethyl-phenyl)-propan-1-one oxime]
EC50: 38 nM

Cc1cc(/C(CC(c2ccc(Br)cc2)c2ccc(Cl)cc2C)=N/O)ccn1 (centres unmarked) [Example 138, (E)-3-(4-Bromophenyl)-3-(4-chloro-2-methylphenyl)-1-(2-methylpyridin-4-yl)propan-1-one oxime]
EC50: 155 nM

Cc1cc(/C(CC(c2ccc(-c3ccc(C(=O)O)cc3)cc2)c2ccc(Cl)cc2C)=N/O)ccn1 (centres unmarked) [Example 139, (E)-4′-(1-(4-chloro-2-methylphenyl)-3-(hydroxyimino)-3-(2-methylpyridin-4-yl)propyl)biphenyl-4-carboxylic acid]
EC50: 17 nM

Cc1cc(/C(CC(c2ccc(Br)cc2)c2ccc(F)cc2C)=N/O)ccn1 (centres unmarked) [Example 140, (E)-3-(4-Bromophenyl)-3-(4-fluoro-2-methylphenyl)-1-(2-methylpyridin-4-yl)propan-1-one oxime]
EC50: 12 nM

Cc1cc(/C(CC(c2ccc(-c3ccc(C(=O)O)cc3)cc2)c2ccc(F)cc2C)=N/O)ccn1 (centres unmarked) [Example 141, (E)-4′-(1-(4-Fluoro-2-methylphenyl)-3-(hydroxyimino)-3-(2-methylpyridin-4-yl)propyl)biphenyl-4-carboxylic acid]
EC50: 8 nM

Cc1cc(/C(C[C@H](c2ccc(-c3cncnc3)cc2)c2ccccc2C)=N/O)ccn1 [Example 143, (E,R)-1-(2-Methyl-pyridin-4-yl)-3-(4-pyrimidin-5-yl-phenyl)-3-o-tolyl-propan-1-one oxime]
EC50: 1 nM

Cc1cc(/C(C[C@H](c2ccc(N3CCN(S(C)(=O)=O)CC3)cc2)c2ccccc2C)=N/O)ccn1 [Example 144, (E,R)-1-(2-Methylpyridin-4-yl)-3-(4-(4-(methylsulfonyl)piperazin-1-yl)phenyl)-3-o-tolylpropan-1-one oxime]
EC50: 17 nM
